#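 Cells were grown in 96-well plates and exposed to each compound for 48 hours at five concentrations; endpoints were interpolated linearly between bracketing concentrations, or set to the highest concentration if not reached. TGI: concentration producing complete growth inhibition.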
# Key:
# Experiment in all cases: NCI tumour cell line growth inhibition, 48 h
# [1] = tested on: EKVX NSCLC
# [2] = tested on: ACHN renal
# [3] = tested on: SNB-75 CNS
# [4] = tested on: TK-10 renal
# [5] = tested on: HS 578T breast
# [6] = tested on: UACC-257 melanoma
# [7] = tested on: SK-MEL-5 melanoma
# [8] = tested on: NCI-H460 lung
# [9] = tested on: NCI-H522 lung
# [10] = tested on: MDA-N
# [11] = tested on: M14 melanoma
# [12] = tested on: KM12 colon
# [13] = tested on: NCI/ADR-RES ovarian
# [14] = tested on: HOP-62 NSCLC
# [15] = tested on: MDA-MB-231 breast
# [16] = tested on: HCC-2998 colon
# [17] = tested on: CCRF-CEM leukemia
# [18] = tested on: OVCAR-8 ovarian
# [19] = tested on: COLO 205 colon
# [20] = tested on: OVCAR-3 ovarian
# [21] = tested on: HCT-15 colon
# [22] = tested on: SK-MEL-28 melanoma
# [23] = tested on: RPMI-8226 leukemia
# [24] = tested on: HOP-92 NSCLC
# [25] = tested on: OVCAR-5 ovarian
# [26] = tested on: IGROV1 ovarian
# [27] = tested on: SR leukemia
# [28] = tested on: SF-268 CNS
# [29] = tested on: CAKI-1 renal
# [30] = tested on: SW-620 colon
# [31] = tested on: UO-31 renal
# [32] = tested on: NCI-H23 lung
# [33] = tested on: MALME-3M melanoma
# [34] = tested on: MOLT-4 leukemia
# [35] = tested on: U251 CNS
# [36] = tested on: HCT-116 colon
# [37] = tested on: OVCAR-4 ovarian
# [38] = tested on: UACC-62 melanoma
# [39] = tested on: A549 NSCLC
# [40] = tested on: 786-0 renal
# [41] = tested on: SF-539 CNS
# [42] = tested on: BT-549 breast
# [43] = tested on: K-562 leukemia
# [44] = tested on: SF-295 CNS
# [45] = tested on: PC-3 prostate
# [46] = tested on: MDA-MB-435
# [47] = tested on: SN12C renal
# [48] = tested on: SK-OV-3 ovarian
# [49] = tested on: A498 renal
# [50] = tested on: SNB-19 CNS
# [51] = tested on: DU-145 prostate
# [52] = tested on: NCI-H226 lung
# [53] = tested on: LOX IMVI melanoma
# [54] = tested on: T-47D breast
# [55] = tested on: HT29 colon
# [56] = tested on: MCF7 breast
# [57] = tested on: RXF 393 renal
# [58] = tested on: HL-60(TB) leukemia
# [59] = tested on: SK-MEL-2 melanoma
smiles,measurement,setting,value
CCOC1CN(C)C(=Nc2cccc3ccccc23)S1 (centres undefined),TGI,[1],> 10 µM
same,TGI,[2],> 10 µM
same,TGI,[3],> 10 µM
same,TGI,[4],> 10 µM
same,TGI,[5],> 10 µM
same,TGI,[6],> 10 µM
same,TGI,[7],> 10 µM
same,TGI,[8],> 10 µM
same,TGI,[9],> 10 µM
same,TGI,[10],> 10 µM
same,TGI,[11],> 10 µM
same,TGI,[12],> 10 µM
same,TGI,[13],> 10 µM
same,TGI,[14],> 10 µM
same,TGI,[15],> 10 µM
same,TGI,[16],> 10 µM
same,TGI,[17],> 10 µM
same,TGI,[18],> 10 µM
same,TGI,[19],> 10 µM
same,TGI,[20],> 10 µM
same,TGI,[21],> 10 µM
same,TGI,[22],> 10 µM
same,TGI,[23],> 10 µM
same,TGI,[24],> 10 µM
same,TGI,[25],> 10 µM
same,TGI,[26],> 10 µM
same,TGI,[27],> 10 µM
same,TGI,[28],> 10 µM
same,TGI,[29],> 10 µM
same,TGI,[30],> 10 µM
same,TGI,[31],> 10 µM
same,TGI,[32],> 10 µM
same,TGI,[33],> 10 µM
same,TGI,[34],> 10 µM
same,TGI,[35],> 10 µM
same,TGI,[36],> 10 µM
same,TGI,[37],> 10 µM
same,TGI,[38],> 10 µM
same,TGI,[39],> 10 µM
same,TGI,[40],> 10 µM
same,TGI,[41],> 10 µM
same,TGI,[42],> 10 µM
same,TGI,[43],> 10 µM
same,TGI,[44],> 10 µM
same,TGI,[45],> 10 µM
same,TGI,[46],> 10 µM
same,TGI,[47],> 10 µM
same,TGI,[48],> 10 µM
same,TGI,[49],> 10 µM
same,TGI,[50],> 10 µM
same,TGI,[51],> 10 µM
same,TGI,[52],> 10 µM
same,TGI,[53],> 10 µM
same,TGI,[54],> 10 µM
same,TGI,[55],> 10 µM
same,TGI,[56],> 10 µM
CN(CCNC(=O)c1[nH]nc2c1Cc1ccccc1-2)CCNC(=O)c1[nH]nc2c1Cc1ccccc1-2,TGI,[1],38.4 µM
same,TGI,[2],32.5 µM
same,TGI,[3],26.1 µM
same,TGI,[4],33.7 µM
same,TGI,[5],61.9 µM
same,TGI,[6],34.3 µM
same,TGI,[7],30.8 µM
same,TGI,[8],33.5 µM
same,TGI,[9],33.4 µM
same,TGI,[10],31.2 µM
same,TGI,[11],34.4 µM
same,TGI,[12],33.6 µM
same,TGI,[13],> 100 µM
same,TGI,[14],29.4 µM
same,TGI,[15],39.3 µM
same,TGI,[16],29.4 µM
same,TGI,[17],42.9 µM
same,TGI,[18],41.7 µM
same,TGI,[19],31.9 µM
same,TGI,[20],28.9 µM
same,TGI,[21],33.2 µM
same,TGI,[22],35.2 µM
same,TGI,[24],34.6 µM
same,TGI,[25],33.5 µM
same,TGI,[26],31.8 µM
same,TGI,[27],42.9 µM
same,TGI,[28],39.6 µM
same,TGI,[57],32.3 µM
same,TGI,[29],31.3 µM
same,TGI,[30],49.4 µM
same,TGI,[31],34.7 µM
same,TGI,[32],33.6 µM
same,TGI,[33],34.5 µM
same,TGI,[34],45.2 µM
same,TGI,[35],41.3 µM
same,TGI,[36],32.8 µM
same,TGI,[37],32.4 µM
same,TGI,[38],37.5 µM
same,TGI,[39],39.8 µM
same,TGI,[40],30.6 µM
same,TGI,[42],31 µM
same,TGI,[58],40.7 µM
same,TGI,[43],38.1 µM
same,TGI,[44],31 µM
same,TGI,[45],35.7 µM
same,TGI,[46],35.3 µM
same,TGI,[47],31.8 µM
same,TGI,[48],31.1 µM
same,TGI,[49],36.8 µM
same,TGI,[50],31.4 µM
same,TGI,[51],32 µM
same,TGI,[52],35.8 µM
same,TGI,[53],38.5 µM
same,TGI,[54],44.3 µM
same,TGI,[55],32.7 µM
same,TGI,[56],44.9 µM
C[C@]12CCC3c4ccc(O)cc4CC[C@H]3C1CC(=O)N(CCN1CCCC1)C2=O (some centres undefined),TGI,[1],> 10 µM
same,TGI,[2],> 10 µM
same,TGI,[3],> 10 µM
same,TGI,[4],> 10 µM
same,TGI,[5],> 10 µM
same,TGI,[6],> 10 µM
same,TGI,[7],> 10 µM
same,TGI,[8],> 10 µM
same,TGI,[10],> 10 µM
same,TGI,[11],> 10 µM
same,TGI,[12],> 10 µM
same,TGI,[13],> 10 µM
same,TGI,[14],> 10 µM
same,TGI,[15],> 10 µM
same,TGI,[16],> 10 µM
same,TGI,[17],> 10 µM
same,TGI,[18],> 10 µM
same,TGI,[19],> 10 µM
same,TGI,[20],> 10 µM
same,TGI,[21],> 10 µM
same,TGI,[22],> 10 µM
same,TGI,[23],> 10 µM
same,TGI,[25],> 10 µM
same,TGI,[26],> 10 µM
same,TGI,[27],> 10 µM
same,TGI,[28],> 10 µM
same,TGI,[57],> 10 µM
same,TGI,[29],> 10 µM
same,TGI,[30],> 10 µM
same,TGI,[31],> 10 µM
same,TGI,[32],> 10 µM
same,TGI,[33],> 10 µM
same,TGI,[34],> 10 µM
same,TGI,[35],> 10 µM
same,TGI,[36],> 10 µM
same,TGI,[37],> 10 µM
same,TGI,[38],> 10 µM
same,TGI,[39],> 10 µM
same,TGI,[40],> 10 µM
same,TGI,[41],> 10 µM
same,TGI,[42],> 10 µM
same,TGI,[58],> 10 µM
same,TGI,[43],> 10 µM
same,TGI,[44],> 10 µM
same,TGI,[45],> 10 µM
same,TGI,[46],> 10 µM
same,TGI,[47],> 10 µM
same,TGI,[48],> 10 µM
same,TGI,[49],> 10 µM
same,TGI,[50],> 10 µM
same,TGI,[51],> 10 µM
same,TGI,[52],> 10 µM
same,TGI,[53],> 10 µM
same,TGI,[54],> 10 µM
same,TGI,[59],> 10 µM
same,TGI,[55],> 10 µM
same,TGI,[56],> 10 µM
